Marks after values point to notes of the source that are not given here.
Columns and labels:
enteric disease = experiment: Example 2: percentage of pigs treated for enteric disease (FIG. 1); assay type: in vivo; conditions: 0.20% L-glutamine diet; Period 1 (d 0-14) and Period 2 (d 15-34) post-weaning and transport
Text: Period 1 is 0-14 days post-weaning and transport and Period 2 is 15-34 days post-weaning and transport. Error bars represent ±1 standard error of the mean (SEM). Letters (a, b) indicate statistically significant differences (P≤0.05) between dietary treatments and symbols (*, #) indicate statistically significant differences (P≤0.05) between periods. In a larger example, three groups of post-weaning and post-transport pigs (each group n=160, total of 480 pigs, 50% male and 50% female) were fed on different diets to assess the effects of L-glutamine as a supplement in the diet in a production environment. The diets consisted primarily of corn and soybean meal as in Example 1. One group (Group A) was fed a standard swine feed in two phases containing a standard antibiotic supplement (400 g chlortetracycline and 35 g tiamulin/ton of feed), another group (GLN) was fed a standard swine feed in two phases containing 0.20% L-glutamine, and a third group (NA) was given a standard swine diet in two phases containing no antibiotics or immunomodulators. Otherwise, the diets for groups A, GLN, and NA were the same. […] Data were analyzed on a per pen basis and the assumptions of normality of error, homogeneity of variance, and linearity were confirmed post-hoc.

[1] = Example 2: grow-finish growth performance (d 0 to d 125) until market; assay type: in vivo, pigs
Text: (§1) In a larger example, three groups of post-weaning and post-transport pigs (each group n=160, total of 480 pigs, 50% male and 50% female) were fed on different diets to assess the effects of L-glutamine as a supplement in the diet in a production environment. The diets consisted primarily of corn and soybean meal as in Example 1. One group (Group A) was fed a standard swine feed in two phases containing a standard antibiotic supplement (400 g chlortetracycline and 35 g tiamulin/ton of feed), another group (GLN) was fed a standard swine feed in two phases containing 0.20% L-glutamine, and a third group (NA) was given a standard swine diet in two phases containing no antibiotics or immunomodulators. Otherwise, the diets for groups A, GLN, and NA were the same. The disparate diets were given to the different groups for 14 days post-weaning and transport, following which all three groups were on a common diet for the remainder of the trial. This experiment was conducted from Jul. 28, 2016 to Sep. 21, 2017. The pigs were followed all the way through market (i.e., day 125 post-weaning, being about 6 months of age). As stated above, the pigs were followed through to market-readiness at six months of age.

[2] = system: tumor necrosis factor alpha (TNFα); experiment: Example 3: tumor necrosis factor alpha in pigs' blood (FIG. 2); assay type: in vivo; conditions: blood samples; diets for 14 days after weaning and 12 h transport; vs no antibiotics
Method: Error bars represent ±1 standard error of the mean (SEM). Letters (a, b) indicate statistically significant differences (P≤0.05) between dietary treatments. In a similar experiment to the one above in Example 2, an L-glutamine-containing diet was evaluated for pigs to determine how it affected their general health and productivity. The experiment was conducted under commercial production conditions using a total of 480 mixed-sex (50% male and 50% female) pigs. Pigs were weaned and then transported for 12 hours to the nursery facility. Once pigs arrived at the nursery facility they were provided 1 of 3 separate diets, those being no antibiotics or L-glutamine (NA); 0.20% L-glutamine (GLN); or dietary antibiotics (A) for 14 days. After the 14-day period all pigs were provided the same antibiotic-free diets until they reached market weight. Blood and intestinal samples were collected from pigs to determine whole body immune function and intestinal integrity. […] Specifically, blood samples from the pigs were tested for tumor necrosis factor alpha (TNFα), a pro-inflammatory cytokine, elevated levels of which can be indicative of systemic inflammation and immune system activation which can be detrimental to the health and productivity of pigs. A reduction in circulating TNFα would be indicative of a decreased whole body inflammatory response in pigs. […]

[3] = Example 1: small-scale simulated transport of post-weaning pigs, 14-day diets; assay type: in vivo; conditions: 0.20% L-glutamine diet, 14 days post-weaning and simulated transport
Text: In a small-scale example, three groups of post-weaning pigs were subjected to a simulated transport experience immediately post-weaning and then provided different diets to assess the effects of L-glutamine as a supplement in the diet. The details of the procedure are given in full in “Evaluating the behavior, growth performance, immune parameters, and intestinal morphology of weaned piglets after simulated transport and heat stress when antibiotics are eliminated from the diet or replaced with L-glutamine” by Johnson, J. S. and Lay Jr., D. C. in the Journal of Animal Science (2017, 95, 91-102), which is incorporated herein in its entirety by reference. In this experiment, the piglets were fed on disparate feeds for 14 days post-weaning and simulated transport, and then euthanized by CO2 exposure and exsanguination.

[4] = Example 2: nursery growth performance (d 0 to d 34 post-weaning) in a production environment; assay type: in vivo, pigs
Text: as §1, with “age).” for “age). As stated above, the pigs were followed through to market-readiness at six months of age.”

intestines = experiment: Example 3: ratio of villus height to crypt depth in the intestines (FIG. 3); assay type: in vivo, pigs; conditions: intestinal samples; diets for 14 days after weaning and 12 h transport; compared to NA
Method: Error bars represent ±1 standard error of the mean (SEM). Letters (x, y) indicate statistical tendencies (0.05<P≤0.10) between dietary treatments. In a similar experiment to the one above in Example 2, an L-glutamine-containing diet was evaluated for pigs to determine how it affected their general health and productivity. The experiment was conducted under commercial production conditions using a total of 480 mixed-sex (50% male and 50% female) pigs. Pigs were weaned and then transported for 12 hours to the nursery facility. Once pigs arrived at the nursery facility they were provided 1 of 3 separate diets, those being no antibiotics or L-glutamine (NA); 0.20% L-glutamine (GLN); or dietary antibiotics (A) for 14 days. After the 14-day period all pigs were provided the same antibiotic-free diets until they reached market weight. Blood and intestinal samples were collected from pigs to determine whole body immune function and intestinal integrity. […] In particular, intestinal samples from pigs were analyzed to determine the ratio of villus height to crypt depth in the intestines. Villus height to crypt depth ratio is a morphological measure of intestinal health and a greater ratio indicates an improvement in intestinal health. […] Improved intestinal health is essential for nutrient absorption and preventing pathogens from entering the body. […]

[5] = d 0 to 14 post-weaning, diet treatment period
[6] = d 0 to 34 post-weaning, overall nursery
[7] = d 15 to 34 post-weaning, common diet period

SMILES: NC(=O)CC[C@H](N)C(=O)O [GLN, L-glutamine]
- requirement for injectable therapeutic antibiotics for enteric disease (enteric disease): the same requirement for injectable therapeutic antibiotics for enteric disease as the piglets fed the antibiotics
- growth performance of piglets through the end of the nursery phase ([1]; body weight at start of grow-finish phase vs no antibiotic pigs): effective in improving the growth performance of piglets through the end of the nursery phase
- Feed efficiency, gain: feed ([1]; d 0 to 62 of grow-finish phase, common diet): 0.46
- Feed efficiency, gain: feed ([1]; d 0 to 125 of grow-finish phase): 0.38
- d 62 body weight ([1]; d 62 of grow-finish phase): 65.02 kg
- Feed efficiency, gain: feed ([1]; d 62 to 125 of grow-finish phase, common diet): 0.31
- Final body weight ([1]; d 125, market): 121.73 kg
- Initial body weight ([1]; start of grow-finish phase (d 0), diets given 14 days post-weaning, then common diet): 17.49^a kg
- circulating TNFα [2]: reduced at a similar level
- effectiveness in other parameters ([3]; vs antibiotics): approximately as effective as the antibiotics
- productivity ([3]; vs non-antibiotic and antibiotic group): better productivity compared to the non-antibiotic and antibiotic group
- overall nursery phase performance ([4]; d 0-34 post-weaning, vs antibiotic pigs): performed similarly to the antibiotic pigs
- Average daily feed intake [4, 5]: 272.06^a g
- Average daily gain [4, 5]: 210.78^a g
- Feed efficiency, gain: feed [4, 5]: 0.79^ab
- Average daily feed intake [4, 6]: 517.08^xy g
- Average daily gain [4, 6]: 352.73^ab g
- Feed efficiency, gain: feed [4, 6]: 0.71^ab
- d 14 body weight ([4]; d 14 post-weaning): 8.50^a kg
- Average daily feed intake [4, 7]: 680.43 g
- Average daily gain [4, 7]: 447.36 g
- Feed efficiency, gain: feed [4, 7]: 0.66
- d 34 body weight ([4]; d 34 post-weaning): 17.49^ab kg
- feed intake, average daily gain, and final body weight compared to the non-antibiotic group ([4]; diet treatment period, d 0-14 post-weaning): significantly higher
- villus height to crypt depth ratio (intestines): greater

From patent publication US20190208800A1, “L-GLUTAMINE IN SWINE DIETS” (The United States of America, as represented by the …, priority 2018, published 2019)
